In publication PMC10586324 (Journal of medicinal chemistry, 2023):
Like-named read-outs stand apart in the source and are kept apart here.

How the values were obtained:
Mabs ATCC19977 = experiment: MBC determination by CFU counting
[1] = Nephelometry kinetic solubility screen in PBS; type: physicochemical
[2] = oral administration, mice; cited from earlier work
[3] = Plasma stability, murine plasma; type: in vitro ADME; details: 1 μM, 120 min
[4] = oral administration, rats; cited from earlier work
Mabs = details: enantiomers; cited from earlier work
[5] = test system: HEP 93 liver cancer cell line; details: cited from earlier work

With `O=C(N[C@H](Cc1ccccc1)C(=O)Nc1ccccc1N1CCS(=O)(=O)CC1)c1cccs1` [Compound 20] as the molecule, how does the “MBC99 as multiple of MIC90” value (Mabs ATCC19977) read?
Its value is 2 X MIC90.

What does the source list for `O=C(N[C@H](Cc1ccccc1)C(=O)Nc1ccccc1N1CC[S+]([O-])CC1)c1ccccc1F` [Compound 15]?
MBC99 as multiple of MIC90 (Mabs ATCC19977): 2 X MIC90; solubility relative to MMV688845 [1]: approximately 5 times

For `O=C(N[C@H](Cc1ccccc1)C(=O)Nc1ccccc1N1CCOCC1)c1cccs1` [MMV688845, Nα-2-thiophenoyl-D-phenylalanine-2-morpholinoanilide], which drug plasma levels [2] is on record?
Its drug plasma levels is “low drug plasma levels”.

And the “MBC99 as multiple of MIC90” value (Mabs ATCC19977)?
Its value is 8 X MIC90.

And the “reduction of viable bacteria” value (Mabs ATCC19977; at 6.25 μM (derivatives: 6.25 μM and higher))?
The value was “no reduction”.

And the “stability in murine plasma” value [3]?
Its value is “stronger decline in concentration than compound 24”.

What about the drug plasma levels [4] of the same molecule?
The drug plasma levels was “low drug plasma levels”.

And the “activity against Mabs” value (Mabs)?
Its value is “shows activity”.

What about the “cytotoxicity HEP 93” value [5] of the same molecule?
Its value is “non-cytotoxic”.

Which “stability in murine plasma” value [3] does the source give for `O=C(N[C@H](Cc1ccccc1)C(=O)Nc1ccccc1N1CCS(=O)(=O)CC1)c1ccccc1F` [Compound 24] here?
The value was “improved stability”.
